# Test results reported in patent US20100305098A1, “METHODS OF USE” (priority 2007, published 2010).
# How the values were obtained:
# [1] = biological target: T1, GAL2 (Homo sapiens, UniProt O43603); assay: FLIPR functional screen; type: cell-based; settings: antagonist mode
# T1 construct: Millipore
# [2] = biological target: T2, ADRA2A (Homo sapiens, UniProt P08913); assay: FLIPR functional screen; type: cell-based; settings: antagonist mode
# T2 construct: purchased Millipore (outsourced screen)
# [3] = biological target: T3, MC4 (Homo sapiens, UniProt P32245); assay: FLIPR functional screen; type: cell-based; settings: antagonist mode
# T3 construct: Millipore
# [4] = biological target: T4, Leukotriene, Cysteinyl CysLT1 (Homo sapiens, UniProt Q9Y271); assay: Competitive radioligand binding (MDS Pharma)
# T4 construct: purchased MDS Pharma (outsourced assay)
# [5] = biological target: T5, BB2 (Homo sapiens, UniProt P30550); assay: FLIPR functional screen; type: cell-based; settings: antagonist mode
# T5 construct: Millipore
# [6] = biological target: T6, GAL1 (Homo sapiens, UniProt P47211); assay: FLIPR functional screen; type: cell-based; settings: antagonist mode
# T6 construct: Millipore
# [7] = biological target: T7, GPR68 (Homo sapiens, UniProt Q15743); assay: FLIPR functional screen; type: cell-based; settings: antagonist mode
# T7 construct: Millipore
# [8] = biological target: T8, C5AR (Homo sapiens, UniProt P21730); assay: FLIPR functional screen; type: cell-based; settings: antagonist mode
# T8 construct: Millipore
# [9] = biological target: T9, Prostanoid, Thromboxane A2 (TP) (Homo sapiens, UniProt P21731); assay: Competitive radioligand binding (MDS Pharma)
# T9 construct: purchased MDS Pharma (outsourced assay)
# [10] = biological target: T10, H3 (Homo sapiens, UniProt Q9Y5N1); assay: FLIPR functional screen; type: cell-based; settings: antagonist mode
# T10 construct: Millipore
# [11] = biological target: T11, D5 (Homo sapiens, UniProt P21918); assay: FLIPR functional screen; type: cell-based; settings: antagonist mode
# T11 construct: Millipore
# [12] = biological target: T12, MOTILIN (Homo sapiens, UniProt O43193); assay: FLIPR functional screen; type: cell-based; settings: antagonist mode
# T12 construct: Millipore
# [13] = biological target: T13, CCR1 (Homo sapiens, UniProt P32246); assay: FLIPR functional screen; type: cell-based; settings: antagonist mode
# T13 construct: Millipore
# [14] = biological target: T14, VPAC1 (Homo sapiens, UniProt P32241); assay: FLIPR functional screen; type: cell-based; settings: antagonist mode
# T14 construct: Millipore
# [15] = biological target: T15, GPR43 (Homo sapiens, UniProt O15552); assay: FLIPR functional screen; type: cell-based; settings: antagonist mode
# T15 construct: Millipore
# [16] = biological target: T16, M5 (Homo sapiens, UniProt P08912); assay: FLIPR functional screen; type: cell-based; settings: antagonist mode
# T16 construct: Millipore
# [17] = biological target: T17, OPRD1 (Homo sapiens, UniProt P41143); assay: FLIPR functional screen; type: cell-based; settings: antagonist mode
# T17 construct: Millipore
# [18] = biological target: T18, NMU1 (Homo sapiens, UniProt Q9HB89); assay: FLIPR functional screen; type: cell-based; settings: antagonist mode
# T18 construct: Millipore
# [19] = biological target: T19, C3AR (Homo sapiens, UniProt Q16581); assay: FLIPR functional screen; type: cell-based; settings: antagonist mode
# T19 construct: Millipore
# [20] = biological target: T20, GPR41 (Homo sapiens, UniProt O14843); assay: FLIPR functional screen; type: cell-based; settings: antagonist mode
# T20 construct: Millipore
# [21] = biological target: T21, D1 (Homo sapiens, UniProt P21728); assay: FLIPR functional screen; type: cell-based; settings: antagonist mode
# T21 construct: Millipore
# [22] = biological target: T22, ADRA1A (Homo sapiens, UniProt P35348); assay: FLIPR functional screen; type: cell-based; settings: antagonist mode
# T22 construct: purchased Millipore (outsourced screen)
# [23] = biological target: T23, S1P2 (Homo sapiens, UniProt O95136); assay: FLIPR functional screen; type: cell-based; settings: antagonist mode
# T23 construct: Millipore
# [24] = biological target: T24, TP (Homo sapiens, UniProt P21731); assay: FLIPR functional screen; type: cell-based; settings: antagonist mode
# T24 construct: Millipore
# [25] = biological target: T25, V2 (Homo sapiens, UniProt P30518); assay: FLIPR functional screen; type: cell-based; settings: antagonist mode
# T25 construct: Millipore
# [26] = biological target: T26, M2 (Homo sapiens, UniProt P08172); assay: FLIPR functional screen; type: cell-based; settings: antagonist mode
# T26 construct: Millipore
# [27] = biological target: T27, PK2 (Homo sapiens, UniProt Q8NFJ6); assay: FLIPR functional screen; type: cell-based; settings: antagonist mode
# T27 construct: Millipore
# [28] = biological target: T28, Y1 (Homo sapiens, UniProt P25929); assay: FLIPR functional screen; type: cell-based; settings: antagonist mode
# T28 construct: Millipore
# [29] = biological target: T29, CXCR3 (Homo sapiens, UniProt P49682); assay: FLIPR functional screen; type: cell-based; settings: antagonist mode
# T29 construct: Millipore
# [30] = biological target: T30, D2 (Homo sapiens, UniProt P14416); assay: FLIPR functional screen; type: cell-based; settings: antagonist mode
# T30 construct: Millipore
# [31] = biological target: T31, EP1 (Homo sapiens, UniProt P34995); assay: FLIPR functional screen; type: cell-based; settings: antagonist mode
# T31 construct: Millipore
# [32] = biological target: T32, S1P4 (Homo sapiens, UniProt O95977); assay: FLIPR functional screen; type: cell-based; settings: antagonist mode
# T32 construct: Millipore
# [33] = biological target: T33, CCR9 (Homo sapiens, UniProt P51686); assay: FLIPR functional screen; type: cell-based; settings: antagonist mode
# T33 construct: Millipore
# [34] = biological target: T34, Prostanoid DP (Homo sapiens, UniProt Q13258); assay: Competitive radioligand binding (MDS Pharma)
# T34 construct: purchased MDS Pharma (outsourced assay)
# [35] = biological target: T35, PAF (Homo sapiens, UniProt P25105); assay: FLIPR functional screen; type: cell-based; settings: antagonist mode
# T35 construct: Millipore
# [36] = biological target: T36, 5-HT2C (Homo sapiens, UniProt P28335); assay: FLIPR functional screen; type: cell-based; settings: antagonist mode
# T36 construct: purchased Millipore (outsourced screen)
# [37] = biological target: T37, Y2 (Homo sapiens, UniProt P49146); assay: FLIPR functional screen; type: cell-based; settings: antagonist mode
# T37 construct: Millipore
# [38] = biological target: T38, CRF1 (Homo sapiens, UniProt P34998); assay: FLIPR functional screen; type: cell-based; settings: antagonist mode
# T38 construct: Millipore
# T4 sequence (Q9Y271 whole entry): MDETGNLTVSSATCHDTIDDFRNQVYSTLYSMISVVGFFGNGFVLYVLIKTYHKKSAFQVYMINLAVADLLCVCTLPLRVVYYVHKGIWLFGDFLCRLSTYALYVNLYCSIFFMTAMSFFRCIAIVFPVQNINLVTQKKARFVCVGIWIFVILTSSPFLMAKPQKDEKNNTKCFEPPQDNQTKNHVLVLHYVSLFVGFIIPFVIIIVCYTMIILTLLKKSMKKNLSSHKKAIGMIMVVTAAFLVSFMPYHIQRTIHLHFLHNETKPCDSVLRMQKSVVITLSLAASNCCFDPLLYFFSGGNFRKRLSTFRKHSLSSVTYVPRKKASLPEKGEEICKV
# T9 sequence (P21731 whole entry): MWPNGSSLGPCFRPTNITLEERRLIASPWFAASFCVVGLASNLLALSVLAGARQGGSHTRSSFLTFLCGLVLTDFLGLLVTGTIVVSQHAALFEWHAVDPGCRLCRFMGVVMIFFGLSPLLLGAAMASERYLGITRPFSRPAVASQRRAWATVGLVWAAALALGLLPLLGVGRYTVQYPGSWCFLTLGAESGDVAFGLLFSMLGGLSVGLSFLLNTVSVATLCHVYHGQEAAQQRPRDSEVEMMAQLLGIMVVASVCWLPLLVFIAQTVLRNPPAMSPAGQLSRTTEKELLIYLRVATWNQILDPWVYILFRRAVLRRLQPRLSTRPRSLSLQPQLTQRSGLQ
# T34 sequence (Q13258 whole entry): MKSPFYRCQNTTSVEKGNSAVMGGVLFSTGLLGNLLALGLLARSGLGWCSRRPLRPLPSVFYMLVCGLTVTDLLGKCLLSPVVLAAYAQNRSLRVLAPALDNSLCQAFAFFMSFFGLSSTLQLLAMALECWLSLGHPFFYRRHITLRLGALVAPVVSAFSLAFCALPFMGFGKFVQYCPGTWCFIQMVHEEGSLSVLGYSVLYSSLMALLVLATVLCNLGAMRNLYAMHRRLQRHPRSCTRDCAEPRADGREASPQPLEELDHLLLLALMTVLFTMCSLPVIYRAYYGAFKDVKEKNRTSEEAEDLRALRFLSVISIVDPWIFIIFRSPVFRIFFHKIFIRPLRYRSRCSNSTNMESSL
# T32 sequence (O95977 whole entry, species assumed): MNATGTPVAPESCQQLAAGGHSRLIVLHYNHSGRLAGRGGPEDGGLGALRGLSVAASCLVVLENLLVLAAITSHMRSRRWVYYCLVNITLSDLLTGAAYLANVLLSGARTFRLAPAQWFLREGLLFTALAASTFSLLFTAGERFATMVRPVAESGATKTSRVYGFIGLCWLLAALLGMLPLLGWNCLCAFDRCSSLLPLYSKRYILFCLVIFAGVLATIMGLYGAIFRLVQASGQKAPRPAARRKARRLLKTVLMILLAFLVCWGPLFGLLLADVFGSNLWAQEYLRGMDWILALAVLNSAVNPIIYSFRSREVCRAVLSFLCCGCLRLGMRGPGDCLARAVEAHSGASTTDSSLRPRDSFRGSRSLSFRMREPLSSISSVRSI
# T10 sequence (Q9Y5N1 whole entry): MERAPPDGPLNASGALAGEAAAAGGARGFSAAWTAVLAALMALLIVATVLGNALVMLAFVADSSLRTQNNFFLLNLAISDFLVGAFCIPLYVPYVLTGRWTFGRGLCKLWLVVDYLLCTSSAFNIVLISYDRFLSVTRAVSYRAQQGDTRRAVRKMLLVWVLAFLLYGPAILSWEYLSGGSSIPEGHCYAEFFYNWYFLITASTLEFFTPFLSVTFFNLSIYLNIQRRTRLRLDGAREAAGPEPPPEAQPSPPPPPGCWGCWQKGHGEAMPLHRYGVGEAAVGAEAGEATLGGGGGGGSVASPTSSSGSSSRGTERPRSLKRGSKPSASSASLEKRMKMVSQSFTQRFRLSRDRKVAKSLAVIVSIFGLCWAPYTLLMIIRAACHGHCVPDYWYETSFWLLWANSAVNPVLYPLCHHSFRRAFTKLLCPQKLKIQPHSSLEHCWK
# T18 sequence (Q9HB89 whole entry): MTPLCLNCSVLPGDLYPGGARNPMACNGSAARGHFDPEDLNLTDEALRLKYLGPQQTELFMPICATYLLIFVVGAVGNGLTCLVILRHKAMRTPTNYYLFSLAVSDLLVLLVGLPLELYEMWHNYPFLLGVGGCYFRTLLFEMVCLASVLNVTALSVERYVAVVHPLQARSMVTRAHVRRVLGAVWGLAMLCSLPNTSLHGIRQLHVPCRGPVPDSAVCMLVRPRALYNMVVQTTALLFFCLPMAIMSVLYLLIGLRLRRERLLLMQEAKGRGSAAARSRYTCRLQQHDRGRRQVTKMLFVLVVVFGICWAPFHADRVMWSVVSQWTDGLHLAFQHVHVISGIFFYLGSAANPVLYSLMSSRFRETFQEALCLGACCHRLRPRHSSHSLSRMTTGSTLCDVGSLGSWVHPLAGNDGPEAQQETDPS
# T37 sequence (P49146 whole entry): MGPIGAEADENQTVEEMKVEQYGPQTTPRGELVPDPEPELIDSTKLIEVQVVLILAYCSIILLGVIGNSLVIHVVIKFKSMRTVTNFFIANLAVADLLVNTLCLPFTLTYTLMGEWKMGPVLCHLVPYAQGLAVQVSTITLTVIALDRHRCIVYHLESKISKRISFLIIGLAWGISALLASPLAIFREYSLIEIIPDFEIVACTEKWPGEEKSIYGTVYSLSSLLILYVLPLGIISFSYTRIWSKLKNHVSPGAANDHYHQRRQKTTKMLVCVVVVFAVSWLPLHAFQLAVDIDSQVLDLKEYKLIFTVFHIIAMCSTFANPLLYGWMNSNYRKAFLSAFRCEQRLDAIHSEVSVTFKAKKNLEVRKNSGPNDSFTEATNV
# T28 sequence (P25929 whole entry): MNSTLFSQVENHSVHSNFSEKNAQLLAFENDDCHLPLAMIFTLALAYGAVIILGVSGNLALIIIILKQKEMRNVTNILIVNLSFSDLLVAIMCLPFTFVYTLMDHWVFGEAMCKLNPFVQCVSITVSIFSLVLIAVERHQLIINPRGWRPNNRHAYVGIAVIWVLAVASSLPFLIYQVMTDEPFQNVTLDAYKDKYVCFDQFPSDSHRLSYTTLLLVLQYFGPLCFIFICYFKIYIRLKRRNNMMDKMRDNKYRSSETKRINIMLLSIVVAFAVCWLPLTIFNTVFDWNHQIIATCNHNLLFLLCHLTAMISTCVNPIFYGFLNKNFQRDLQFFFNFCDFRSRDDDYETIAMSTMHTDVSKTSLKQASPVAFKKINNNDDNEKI
# T8 sequence (P21730 whole entry, species assumed): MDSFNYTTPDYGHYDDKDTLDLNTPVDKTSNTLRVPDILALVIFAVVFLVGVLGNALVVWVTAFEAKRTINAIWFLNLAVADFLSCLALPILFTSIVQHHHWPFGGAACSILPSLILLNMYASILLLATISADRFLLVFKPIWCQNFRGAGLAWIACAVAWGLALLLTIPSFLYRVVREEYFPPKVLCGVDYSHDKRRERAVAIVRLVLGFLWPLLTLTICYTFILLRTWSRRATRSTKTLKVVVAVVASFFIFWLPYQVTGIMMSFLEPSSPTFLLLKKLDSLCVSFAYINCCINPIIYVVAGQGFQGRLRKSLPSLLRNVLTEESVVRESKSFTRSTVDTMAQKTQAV
# T2 sequence (P08913 whole entry): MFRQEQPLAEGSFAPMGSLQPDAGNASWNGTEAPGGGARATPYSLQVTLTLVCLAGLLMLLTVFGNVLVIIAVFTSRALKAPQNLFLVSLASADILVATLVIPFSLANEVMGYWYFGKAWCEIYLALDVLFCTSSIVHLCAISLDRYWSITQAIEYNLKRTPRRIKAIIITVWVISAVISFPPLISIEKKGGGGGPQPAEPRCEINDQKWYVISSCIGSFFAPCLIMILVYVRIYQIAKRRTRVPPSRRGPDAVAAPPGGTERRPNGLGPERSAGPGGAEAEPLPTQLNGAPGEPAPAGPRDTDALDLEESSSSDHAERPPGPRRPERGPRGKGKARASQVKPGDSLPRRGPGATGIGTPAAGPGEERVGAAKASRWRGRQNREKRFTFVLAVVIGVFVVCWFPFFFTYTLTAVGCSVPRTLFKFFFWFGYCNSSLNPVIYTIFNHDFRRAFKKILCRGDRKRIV
# T12 sequence (O43193 whole entry): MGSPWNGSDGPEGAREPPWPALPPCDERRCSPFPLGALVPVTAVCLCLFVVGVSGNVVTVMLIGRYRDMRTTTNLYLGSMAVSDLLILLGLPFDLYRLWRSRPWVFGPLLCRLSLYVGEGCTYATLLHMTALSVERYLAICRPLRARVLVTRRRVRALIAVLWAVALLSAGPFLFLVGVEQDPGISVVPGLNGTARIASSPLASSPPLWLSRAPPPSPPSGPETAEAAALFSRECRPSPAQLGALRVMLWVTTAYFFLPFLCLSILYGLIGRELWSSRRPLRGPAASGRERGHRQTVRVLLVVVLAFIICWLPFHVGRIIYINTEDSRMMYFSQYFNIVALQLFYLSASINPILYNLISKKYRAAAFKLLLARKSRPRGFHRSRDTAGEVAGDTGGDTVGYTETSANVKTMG
# T27 sequence (Q8NFJ6 whole entry): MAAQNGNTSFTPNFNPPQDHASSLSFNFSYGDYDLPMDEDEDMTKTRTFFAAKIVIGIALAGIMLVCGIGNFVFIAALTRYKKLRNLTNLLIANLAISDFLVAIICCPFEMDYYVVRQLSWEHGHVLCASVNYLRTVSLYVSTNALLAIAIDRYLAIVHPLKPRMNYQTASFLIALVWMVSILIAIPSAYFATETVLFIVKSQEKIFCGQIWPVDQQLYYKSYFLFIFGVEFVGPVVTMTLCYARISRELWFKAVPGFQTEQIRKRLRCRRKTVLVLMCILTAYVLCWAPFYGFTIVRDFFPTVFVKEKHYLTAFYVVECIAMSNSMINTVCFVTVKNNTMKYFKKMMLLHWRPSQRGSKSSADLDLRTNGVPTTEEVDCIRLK
# T24 sequence (P21731 whole entry): as the sequence (P21731 whole entry) above
smiles,measurement,setting,value
CCN1C(=O)N2Cc3cc(OC)cc(OC)c3[C@@H](C)C=C2C12CCN(Cc1cccn1C)CC2 [ER-819924-01],inhibition at 1 µM,[1],8.1%
same,inhibition at 1 µM,[2],3.3%
same,inhibition at 1 µM,[3],-5.1%
same,% INHIBITION,[4]; CONC. 0.1 μm,−1%
same,% INHIBITION,[4]; CONC. 1 μm,−5%
same,inhibition at 1 µM,[5],0.6%
same,inhibition at 1 µM,[6],9.1%
same,inhibition at 1 µM,[7],13.4%
same,inhibition at 1 µM,[8],6.2%
same,% INHIBITION,[9]; CONC. 0.1 μm,−3%
same,% INHIBITION,[9]; CONC. 1 μm,−14%
same,inhibition at 1 µM,[10],-31.5%
same,inhibition at 1 µM,[11],34.7%
same,inhibition at 1 µM,[12],-0.9%
same,inhibition at 1 µM,[13],-8.2%
same,inhibition at 1 µM,[14],4.6%
same,inhibition at 1 µM,[15],10.6%
same,inhibition at 1 µM,[16],10.1%
same,inhibition at 1 µM,[17],5.7%
same,inhibition at 1 µM,[18],-14%
same,inhibition at 1 µM,[19],-8.2%
same,inhibition at 1 µM,[20],-7.3%
same,inhibition at 1 µM,[21],14%
same,inhibition at 1 µM,[22],17.6%
same,inhibition at 1 µM,[23],-0.5%
same,inhibition at 1 µM,[24],1.8%
same,inhibition at 1 µM,[25],-24.8%
same,inhibition at 1 µM,[26],1.5%
same,inhibition at 1 µM,[27],-3.8%
same,inhibition at 1 µM,[28],-22.7%
same,inhibition at 1 µM,[29],3.2%
same,inhibition at 1 µM,[30],-4.6%
same,inhibition at 1 µM,[31],-2%
same,inhibition at 1 µM,[32],-6.6%
same,inhibition at 1 µM,[33],-9.1%
same,% INHIBITION,[34]; CONC. 0.1 μm,0%
same,% INHIBITION,[34]; CONC. 1 μm,13%
same,inhibition at 1 µM,[35],5.4%
same,inhibition at 1 µM,[36],-12.5%
same,inhibition at 1 µM,[37],-1%
same,inhibition at 1 µM,[38],3.9%
